The text below walks through data of publication PMC10245146, “CNS4 causes subtype‐specific changes in agonist efficacy and reversal potential of permeant cations in NMDA receptors” (Pharmacology Research & Perspectives, 2023).

The target in one test is T1, GluN1/2A NMDA receptors (UniProt P35439+Q12879).
T1 construct: expressed in transfected cells; host or cells: Xenopus oocytes (cRNA injection)
In words: TEVC antagonist block of agonist-induced currents, 1/2A. Type of test: cell-based. The settings on record: 100 μM glutamate and glycine, n = 7 (7). As to the method: (§1) Electrophysiological responses were measured using a standard two‐microelectrode voltage‐clamp workstation (Warner Instruments model OC‐725C) designed to provide a fast clamp of large cells. The recording buffer contained 116 mM NaCl, 2 mM KCl, 0.3 mM BaCl2, and 5 mM HEPES, pH 7.4. Response magnitude was determined in Xenopus oocytes expressing different NMDA receptor subunits (GluN1/2A, 1/2B, 1/2C, 1/2D, and 1/2A/2B) by the steady plateau response elicited by bath application of different agonist concentrations. […] All data points were obtained from the steady state currents unless stated otherwise. Dose–response relationships were fit to an appropriate curve‐fitting equation using GraphPad Prism‐7. Non‐linear regression was used to calculate EC50, IC50, and fold change or percentage maximal response. Curves were fit using the following equations as performed in the previous studies, [37]: Y=100/1+10^LogEC50−XorY=Bottom+Top−Bottom/1+10^LogEC50−X . Statistical significance was determined at the overall alpha level 0.05, using appropriate statistical methods as described in all figure captions. Technical and biological replicates are explicitly mentioned in each figure legend, as n = X (Y). X represents technical repeats (number of traces) and Y represents biological repeats (number of oocytes or HEK293T cells studied). […] For the data sets with nonparametric distribution, Wilcoxon signed rank test is a nonparametric test was used (Figure 1). Paired or unpaired t‐tests were for used only compare the datasets obtained with and without CNS4 dose response curves.
(§2) If CNS4 directly competes with GluN1 or GluN2 competitive antagonists or indirectly influences the activity, there should be a change in DCKA and/ or DL‐AP5 activity in blocking agonist‐induced currents.
FIGURE 4 Effect of CNS4 on competitive and uncompetitive NMDA receptor antagonists. […] A similar experiment was performed with 100 μM DL‐AP5. […] Paired student‐t test was performed to calculate the statistical significance. […] Unpaired student‐t test was performed to calculate the statistical significance. *p < .05; NS, not significant.

The target of the next test is T2, GluN1/2D NMDA receptors (UniProt O15399+P35439).
T2 construct: host or cells: Xenopus oocytes (cRNA injection)
In words: TEVC antagonist block of agonist-induced currents, 1/2D. The class given is cell-based. The following applies: 100 μM glutamate and glycine. As to the method: as §1, §2
FIGURE 4 Effect of CNS4 on competitive and uncompetitive NMDA receptor antagonists. […] A similar experiment was performed with 100 μM DL‐AP5. […] Paired student‐t test was performed to calculate the statistical significance. […]

A further test concerns the target 1/2D NMDA receptor. The following applies: read-out: Glutamate potency EC50; cited from earlier work.
The next test addresses 1/2A NMDA receptor. The settings on record: read-out: Glutamate potency EC50; cited from earlier work.
The test system of test [1] is GluN1/2A/2B triheteromeric (1/2AB) NMDA receptors. Nature of the test: TEVC agonist dose-response, Xenopus oocytes expressing 1/2AB. The class given is cell-based. The following applies: without CNS4; 100 μM glutamate constant; relative to 1 μM glycine. The text has this:
NMDA receptor constructs: cDNA encoding the NMDA receptor1a subunit (GluN1a) was obtained from Dr. Nakanishi (Kyoto, Japan). cDNA encoding the GluN2B (pci_sepGluN2B), originally developed in the Malinow lab,[33] was purchased from Addgene (cat# 23998), Cambridge, MA. cDNA encoding the GluN2C and GluN2D were purchased from GenScript, New Jersey, USA. Mutated GluN1, 2A and 2B cDNA constructs capable of assembling as GluN1/2A/2B triheteromeric (1/2AB) receptors[34] were obtained from Dr. Paoletti (Laboratoire de Neurobiologie, CNRS). These constructs have been previously tested for 1/2AB receptor activity of GluN1/2A receptor‐selective potentiators.[35] […] Plasmids were linearized with NotI (GluN1a and all five GluN1 mutants) or Avrll (GluN2B), or BstB1 (GluN2C and GluN2D) and transcribed in vitro with T7 (GluN1a, GluN1/2A, GluN2B, GluN2C & GluN2D), and SP6 (GluN1 mutants) RNA polymerase using the mMessage mMachine transcription kits (Invitrogen by Thermo Fisher Scientific).
Stage IV frog oocytes were obtained from Xenopus‐I, (Ann Arbor, MI, USA). NMDA receptor subunit cRNAs were suspended in nuclease free sterile water. GluN1A, GluN2B, GluN2C, GluN2D and GluN1/2A/2B cRNAs were mixed in a ratio of 1:1–3. 50 nL of the final cRNA mixture was microinjected (40–70 ng total) into the oocyte cytoplasm. Oocytes were incubated in ND‐96 solution at 18°C prior to electrophysiological recordings (2–5 days).
Electrophysiological responses were measured using a standard two‐microelectrode voltage‐clamp workstation (Warner Instruments model OC‐725C) designed to provide a fast clamp of large cells. The recording buffer contained 116 mM NaCl, 2 mM KCl, 0.3 mM BaCl2, and 5 mM HEPES, pH 7.4. Response magnitude was determined in Xenopus oocytes expressing different NMDA receptor subunits (GluN1/2A, 1/2B, 1/2C, 1/2D, and 1/2A/2B) by the steady plateau response elicited by bath application of different agonist concentrations. […] All data points were obtained from the steady state currents unless stated otherwise. Dose–response relationships were fit to an appropriate curve‐fitting equation using GraphPad Prism‐7. Non‐linear regression was used to calculate EC50, IC50, and fold change or percentage maximal response. Curves were fit using the following equations as performed in the previous studies, [37]: Y=100/1+10^LogEC50−XorY=Bottom+Top−Bottom/1+10^LogEC50−X . Statistical significance was determined at the overall alpha level 0.05, using appropriate statistical methods as described in all figure captions. Technical and biological replicates are explicitly mentioned in each figure legend, as n = X (Y). X represents technical repeats (number of traces) and Y represents biological repeats (number of oocytes or HEK293T cells studied). […]

[2] abbreviates: 100 μM antagonist plus 100 μM CNS4.

A word on the EC50: it is the midpoint of the concentration-response curve.

Where “and” joins values, the source holds several entries; their conditions need not be identical. Equal entries are not always repeated.

T1 sequence (Q12879 23-1464, other chains not shown): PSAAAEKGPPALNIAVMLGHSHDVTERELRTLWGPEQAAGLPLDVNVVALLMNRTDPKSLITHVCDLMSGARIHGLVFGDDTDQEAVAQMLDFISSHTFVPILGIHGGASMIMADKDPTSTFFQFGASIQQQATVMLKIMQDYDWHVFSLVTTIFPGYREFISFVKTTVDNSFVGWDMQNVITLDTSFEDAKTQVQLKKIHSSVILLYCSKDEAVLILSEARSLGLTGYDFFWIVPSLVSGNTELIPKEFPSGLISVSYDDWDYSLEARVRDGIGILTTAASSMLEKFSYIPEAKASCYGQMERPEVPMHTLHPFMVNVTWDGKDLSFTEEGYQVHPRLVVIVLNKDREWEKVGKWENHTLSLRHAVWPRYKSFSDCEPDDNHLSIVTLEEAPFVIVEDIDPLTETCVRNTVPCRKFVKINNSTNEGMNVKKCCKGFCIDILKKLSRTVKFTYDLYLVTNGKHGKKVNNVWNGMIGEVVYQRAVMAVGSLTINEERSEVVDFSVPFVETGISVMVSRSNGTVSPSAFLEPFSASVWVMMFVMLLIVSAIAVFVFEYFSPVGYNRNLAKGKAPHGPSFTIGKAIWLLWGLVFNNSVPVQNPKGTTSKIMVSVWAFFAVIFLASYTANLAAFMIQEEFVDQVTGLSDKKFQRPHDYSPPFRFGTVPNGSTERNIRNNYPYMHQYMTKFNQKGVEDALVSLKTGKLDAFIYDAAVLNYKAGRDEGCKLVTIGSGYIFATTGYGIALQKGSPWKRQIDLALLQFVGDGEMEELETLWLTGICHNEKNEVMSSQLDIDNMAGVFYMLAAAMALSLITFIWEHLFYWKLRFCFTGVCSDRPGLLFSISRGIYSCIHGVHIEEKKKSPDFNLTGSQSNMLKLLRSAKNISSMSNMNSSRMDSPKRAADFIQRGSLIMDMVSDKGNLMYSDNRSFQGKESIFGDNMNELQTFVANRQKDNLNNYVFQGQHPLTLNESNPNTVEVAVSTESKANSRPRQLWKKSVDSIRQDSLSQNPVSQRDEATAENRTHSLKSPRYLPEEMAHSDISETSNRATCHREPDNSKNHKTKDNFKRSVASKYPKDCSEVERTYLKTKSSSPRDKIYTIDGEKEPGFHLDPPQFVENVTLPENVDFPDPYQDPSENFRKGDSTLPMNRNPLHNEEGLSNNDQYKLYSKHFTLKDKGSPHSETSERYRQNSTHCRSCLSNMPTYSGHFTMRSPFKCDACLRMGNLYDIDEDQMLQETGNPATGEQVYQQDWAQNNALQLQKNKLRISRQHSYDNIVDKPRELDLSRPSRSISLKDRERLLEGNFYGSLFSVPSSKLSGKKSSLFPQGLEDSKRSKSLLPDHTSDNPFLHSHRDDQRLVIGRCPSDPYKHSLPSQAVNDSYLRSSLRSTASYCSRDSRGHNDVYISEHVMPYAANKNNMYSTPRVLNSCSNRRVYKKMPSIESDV
T2 sequence (O15399 28-1336, other chains not shown): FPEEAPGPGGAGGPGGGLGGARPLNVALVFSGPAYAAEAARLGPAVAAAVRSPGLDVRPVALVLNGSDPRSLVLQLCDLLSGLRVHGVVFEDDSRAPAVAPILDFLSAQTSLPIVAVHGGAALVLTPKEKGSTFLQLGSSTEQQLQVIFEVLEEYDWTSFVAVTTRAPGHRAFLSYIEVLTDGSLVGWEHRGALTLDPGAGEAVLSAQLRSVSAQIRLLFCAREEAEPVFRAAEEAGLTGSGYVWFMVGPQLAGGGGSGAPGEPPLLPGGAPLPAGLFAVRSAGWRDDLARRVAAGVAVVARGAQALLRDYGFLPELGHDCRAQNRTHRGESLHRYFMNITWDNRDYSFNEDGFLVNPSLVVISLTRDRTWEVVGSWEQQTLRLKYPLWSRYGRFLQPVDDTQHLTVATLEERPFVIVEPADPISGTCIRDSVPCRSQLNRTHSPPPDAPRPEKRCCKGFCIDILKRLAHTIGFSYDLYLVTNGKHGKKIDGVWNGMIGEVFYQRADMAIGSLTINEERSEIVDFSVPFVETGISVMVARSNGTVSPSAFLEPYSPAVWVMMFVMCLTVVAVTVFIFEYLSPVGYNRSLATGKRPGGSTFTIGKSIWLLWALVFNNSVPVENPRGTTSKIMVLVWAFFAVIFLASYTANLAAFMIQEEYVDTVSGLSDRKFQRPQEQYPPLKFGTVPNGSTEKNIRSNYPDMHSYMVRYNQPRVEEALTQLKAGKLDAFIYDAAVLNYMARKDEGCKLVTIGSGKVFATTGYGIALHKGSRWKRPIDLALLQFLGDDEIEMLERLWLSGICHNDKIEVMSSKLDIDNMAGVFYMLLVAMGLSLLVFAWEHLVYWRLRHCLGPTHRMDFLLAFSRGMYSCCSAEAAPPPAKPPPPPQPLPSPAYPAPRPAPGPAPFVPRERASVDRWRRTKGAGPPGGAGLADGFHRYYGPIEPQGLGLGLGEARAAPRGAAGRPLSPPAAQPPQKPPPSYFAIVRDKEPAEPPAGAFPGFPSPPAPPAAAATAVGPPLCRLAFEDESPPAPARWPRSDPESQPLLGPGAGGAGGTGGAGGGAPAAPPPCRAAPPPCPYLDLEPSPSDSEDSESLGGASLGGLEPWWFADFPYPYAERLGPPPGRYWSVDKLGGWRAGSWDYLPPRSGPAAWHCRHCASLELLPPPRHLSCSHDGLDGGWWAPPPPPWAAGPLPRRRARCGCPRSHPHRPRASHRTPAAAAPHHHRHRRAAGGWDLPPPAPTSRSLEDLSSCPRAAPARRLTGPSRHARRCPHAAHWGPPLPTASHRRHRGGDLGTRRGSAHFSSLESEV

As for `O=C(O)c1cc(=O)c2c(Cl)cc(Cl)cc2[nH]1` [DCKA], the entries for the “Block of agonist-induced currents” value on GluN1/2A NMDA receptors (100 μM antagonist alone), on GluN1/2A NMDA receptors (setting [2]) and at GluN1/2D NMDA receptors (setting [2]) were 97.85 ± 0.66%, 98.98 ± 0.21% and 62.09 ± 2.27%, respectively.

In the case of `NC(CCCP(=O)(O)O)C(=O)O` (stereo not drawn) [DL‐AP5], the “Block of agonist-induced currents” value is 39.53 ± 1.22% and ~ 39% at GluN1/2A NMDA receptors (100 μM antagonist alone); 38.10 ± 1.28% on GluN1/2A NMDA receptors (setting [2]); 18.28 ± 10.47% and ~ 18% on GluN1/2D NMDA receptors (100 μM antagonist alone); 5.96 ± 10.59% on GluN1/2D NMDA receptors (setting [2]).

Regarding `N[C@@H](CCC(=O)O)C(=O)O` [glutamate, L‐glutamate], the results for the EC50 at 1/2D NMDA receptor and on 1/2A NMDA receptor were about 500 nM and about 3000 nM, respectively.

In the case of `NCC(=O)O` [glycine, reference compound], in test [1], the “Glycine efficacy: relative fold change in current at highest glycine concentration” value stood at 2.37 ± 0.23 fold.
